Results reported in patent US4570013A, “Biphenylylalkanoic acid derivatives, methods of preparation and pharmaceutical compositions therefrom” (Dr. L. Zambeletti S.p.A., priority 1983, dated 1986).

What was measured:
[1] = test system: oedema induced in the rats' paw by intradermic injection of carrageenin; assay: carrageenin-induced paw oedema (method of Winter), antiinflammatory activity; assay type: in vivo; details: Rattus norvegicus, po, os, read-out: Antiinflammatory activity (oedema caused by carrageenin in rats) ED50
[2] = test system: writhings caused by 2-phenylparabenzoquinone in mice; assay: writhing test (method of Siegmund), 2-phenylparabenzoquinone, analgesic activity; assay type: in vivo, Swiss mice; details: Mus musculus, po; read-out: Analgesic activity (against pain caused by 2-phenyl-p-benzo-quinone in mice) ED50
Excerpt: The analgesic activity has been studied according to the method described by Siegmund (E. Siegmund et al, Proc. Soc. Exptl. Biol. Med., 95, 729 (1957)), according to which the algogenic stimulus consists of the intraperitoneal injection of 2-phenylparabenzoquinone and the algesia manifests itself in repeated abdominal contractions with an extension of the rear limbs and contorsions of the body ("writhing test").

[3] = test system: Hyperthermia caused by brewer's yeast in rats; assay: brewer's yeast hyperthermia (method of C. Winter), antipyretic activity; assay type: in vivo; details: Rattus norvegicus, po; rats, os; read-out: Antipyretic activity (temperature increase by brewer's yeast, in rats) ED50
Excerpt: The antipyretic activity has been studied according to the method of C. Winter, Toxicol. and Appl. Pharmacol., 5, 247 (1963), in rats, by determining the ability of the substance to reduce the increase of body temperature caused by the subcutaneous administration of brewer's yeast.

[4] = gastrolesive action after single doses; details: rat, in vivo, po
[5] = in vivo; details: rat, po

| Compound | ED50 [1] | ED50 [2] | ED50 [3] | TD50 [4] | TD50 [5] |
| --- | --- | --- | --- | --- | --- |
| COc1ccc2cc(C(C)C(=O)O)ccc2c1 (stereo not drawn) [Naproxen, 6-methoxy-α-methyl-2-naphthaleneacetic acid, reference compound] | 24 mg/kg | 20 mg/kg | 112 mg/kg | 17 mg/kg |  |
| O=C(Cc1ccc(-c2ccccc2)cc1)Nc1ccccn1 [Diphenpyramide, N-2-pyridinyl-(1,1'-biphenyl)-4-acetamide] | 19.9 mg/kg | 97 mg/kg | 22.5 mg/kg |  | 76 mg/kg |
